Assay: Evaluation of Antiviral Activity of Compounds Against Human Coronavirus (HCov) 229E and OC43 in the Cytopathic Effect (CPE) Assays: Compounds were assayed using standard methods against multiple coronaviral strains, including HCoV 229E and OC43 strains. […] The antiviral activity of compounds was calculated based on the protection of the virus-induced CPE at each concentration normalized by the virus control.

Row | SMILES | EC50 [µM]
1 | COc1cccc2[nH]c(C(=O)N[C@@H](CC(C)(C)C)C(=O)N[C@H](C#N)C[C@@H]3CCCNC3=O)cc12 | < 22
2 | COc1cccc2[nH]c(C(=O)N[C@@H](CC3CCC3)C(=O)N[C@H](C#N)C[C@@H]3CCNC3=O)cc12 | < 22
3 | COc1cccc2[nH]c(C(=O)N3C[C@H](OC)C[C@H]3C(=O)N[C@H](C#N)C[C@@H]3CCNC3=O)cc12 | < 22
4 | COc1cccc2[nH]c(C(=O)N[C@@H](CC(C)C)C(=O)N[C@H](C#N)C[C@@H]3CCNC3=O)cc12 | < 22
5 | COc1cccc2[nH]c(C(=O)N[C@@H](CC(C)C)C(=O)N[C@@H](C[C@@H]3CCNC3=O)C(C#N)NCC(=O)O)cc12 (stereo partly drawn) | < 22
6 | COc1cccc2[nH]c(C(=O)N3C[C@H](SC)C[C@H]3C(=O)N[C@H](C#N)C[C@@H]3CCNC3=O)cc12 | 6
7 | N#C[C@H](C[C@@H]1CCCNC1=O)NC(=O)C1CC2(CN1C(=O)c1cc3cccc(Cl)c3[nH]1)CC(F)(F)C2 (single isomer, unassigned) | < 22
8 | CC(C)C[C@H](NC(=O)c1nc2ncccc2[nH]1)C(=O)N[C@H](C#N)C[C@@H]1CCNC1=O | 6
9 | N#C[C@H](C[C@@H]1CCCNC1=O)NC(=O)[C@@H]1CC2(CCCCC2)CN1C(=O)c1cc2ccc(Cl)cc2[nH]1 (single isomer, unassigned) | < 22
10 | CCCOc1cccc2[nH]c(C(=O)N[C@@H](CC(C)C)C(=O)N[C@H](C#N)C[C@@H]3CCNC3=O)cc12 | < 22
11 | COc1cccc2[nH]c(C(=O)N[C@@H](CC(C)C)C(=O)N[C@H](/C=C/S(C)(=O)=O)C[C@@H]3CCNC3=O)cc12 | > 30
12 | CCCN1C(=N)C([C@H](C[C@@H]2CCNC2=O)NC(=O)[C@H](CC(C)C)NC(=O)c2cc3c(OC)cccc3[nH]2)OC1=O (stereo partly drawn) | > 30
13 | N#C[C@H](C[C@@H]1CCCNC1=O)NC(=O)C1CC2(CCCCC2)CN1C(=O)c1cc2cccc(Cl)c2[nH]1 (single isomer, unassigned; isomer 1) | < 22
14 | N#C[C@H](C[C@@H]1CCNC1=O)NC(=O)[C@H](CC1CC1)NC(=O)c1cc2cc(Cl)ccc2[nH]1 | < 22
15 | COc1cccc2[nH]c(C(=O)N3C[C@@H](C45CC(C4)C5)C[C@H]3C(=O)N[C@H](C#N)C[C@@H]3CCNC3=O)cc12 (single isomer, unassigned) | < 22
16 | COc1cccc2[nH]c(C(=O)N[C@@H](CC(C)C)C(=O)N[C@@H](C[C@@H]3CCNC3=O)[C@H](C#N)N3CCCC3)cc12 (single isomer, unassigned) | < 22
17 | COc1cccc2[nH]c(C(=O)N[C@@H](CC(C)C)C(=O)N[C@@H](C[C@@H]3CCNC3=O)[C@@H](C#N)N3CCCC3)cc12 (single isomer, unassigned) | < 22
18 | N#C[C@H](C[C@@H]1CCNC1=O)NC(=O)[C@H](CC1CC1)NC(=O)c1cc2cccc(Cl)c2[nH]1 | < 22
19 | COc1cccc2[nH]c(C(=O)N3C[C@H](C45CC(C4)C5)C[C@H]3C(=O)N[C@H](C#N)C[C@@H]3CCNC3=O)cc12 (single isomer, unassigned) | < 22
20 | COc1cccc2[nH]c(C(=O)N[C@@H](CC(C)C)C(=O)N[C@@H](C[C@@H]3CCNC3=O)C(C#N)Nc3ccccc3)cc12 (stereo partly drawn) | 6
21 | CC(C)C[C@H](NC(=O)c1cc2c(OC(F)F)cccc2[nH]1)C(=O)N[C@H](C#N)C[C@@H]1CCNC1=O | < 22
22 | COc1cccc2[nH]c(C(=O)N[C@@H](CC(C)(F)F)C(=O)N[C@H](C#N)C[C@@H]3CCNC3=O)cc12 (single isomer, unassigned) | < 22
23 | COc1cccc2[nH]c(C(=O)N[C@@H](CC(C)C)C(=O)NC(C#N)c3cccnc3)cc12 (stereo partly drawn) | 6

Reference: ChEMBL document CHEMBL5728596, “Inhibitors of cysteine proteases and methods of use thereof” (2021)
